# System: K98450-129-R-PDC complex spheroid growth, percent test/control
# Test: Anticancer human tumor K98450-129-R-PDC patient-derived colon adenocarcinoma cell line growth inhibition [RAS]
# Conditions: for IC50: curve of first compound; for viability, T/C: stronger effect = lower value
# Procedure, shortened: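 Multi-cell-type spheroids: tumor cells plus HUVEC endothelial cells and mesenchymal stem cells. RAS-pathway inhibitors were combined with targeted agents, each dosed in half-log steps down from clinical Cmax, or from 10 microM when Cmax was unknown.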
# [1] = second compound 0.000949 µM, first compound 0.00316 µM
# [2] = second compound 0.000949 µM, first compound 0.01 µM
# [3] = second compound 0.000949 µM, first compound 0.0316 µM
# [4] = second compound 0.000949 µM, first compound 0.1 µM
# [5] = second compound 0.000949 µM, first compound 0.316 µM
# [6] = second compound 0.000949 µM, first compound 1 µM
# [7] = second compound 0.003 µM, first compound 0.00316 µM
# [8] = second compound 0.003 µM, first compound 0.01 µM
# [9] = second compound 0.003 µM, first compound 0.0316 µM
# [10] = second compound 0.003 µM, first compound 0.1 µM
# [11] = second compound 0.003 µM, first compound 0.316 µM
# [12] = second compound 0.003 µM, first compound 1 µM
# [13] = second compound 0.00949 µM, first compound 0.00316 µM
# [14] = second compound 0.00949 µM, first compound 0.01 µM
# [15] = second compound 0.00949 µM, first compound 0.0316 µM
# [16] = second compound 0.00949 µM, first compound 0.1 µM
# [17] = second compound 0.00949 µM, first compound 0.316 µM
# [18] = second compound 0.00949 µM, first compound 1 µM
# [19] = second compound 0.03 µM, first compound 0.00316 µM
# [20] = second compound 0.03 µM, first compound 0.01 µM
# [21] = second compound 0.03 µM, first compound 0.0316 µM
# [22] = second compound 0.03 µM, first compound 0.1 µM
# [23] = second compound 0.03 µM, first compound 0.316 µM
# [24] = second compound 0.03 µM, first compound 1 µM
# [25] = second compound 0.0949 µM, first compound 0.00316 µM
# [26] = second compound 0.0949 µM, first compound 0.01 µM
# [27] = second compound 0.0949 µM, first compound 0.0316 µM
# [28] = second compound 0.0949 µM, first compound 0.1 µM
# [29] = second compound 0.0949 µM, first compound 0.316 µM
# [30] = second compound 0.0949 µM, first compound 1 µM
# [31] = second compound 0.3 µM, first compound 0.00316 µM
# [32] = second compound 0.3 µM, first compound 0.01 µM
# [33] = second compound 0.3 µM, first compound 0.0316 µM
# [34] = second compound 0.3 µM, first compound 0.1 µM
# [35] = second compound 0.3 µM, first compound 0.316 µM
# [36] = second compound 0.3 µM, first compound 1 µM
# 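Further: spheroids exposed to agents for seven days before the viability readout.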
# 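Wherever viability, T/C is given: luminescence used as a proxy for viable cell amount.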
structure (smiles),measurement,setting,value
CC1(C)CCC(Nc2ncc(C(F)(F)F)c(-c3c[nH]c4c(P(C)(C)=O)c(C#N)ccc34)n2)CN1 (stereo unspecified) + C=CC(=O)N1CCN(c2nc(OCC3CCCN3C)nc3c(F)c(-c4nc(N)cc(C)c4C(F)(F)F)c(Cl)cc23)C(C)C1,IC50,second compound 0.00316 µM,> 300 nM
same,IC50,second compound 0.01 µM,270 nM
same,IC50,second compound 0.0316 µM,166 nM
same,IC50,second compound 0.1 µM,72.1 nM
same,IC50,second compound 0.316 µM,< 0.949 nM
same,IC50,second compound 1 µM,< 0.949 nM
same,"viability, T/C","second compound 0.00316 µM, first compound 0.000949 µM",99.3%
same,"viability, T/C","second compound 0.00316 µM, first compound 0.003 µM",100%
same,"viability, T/C","second compound 0.00316 µM, first compound 0.00949 µM",97.8%
same,"viability, T/C","second compound 0.00316 µM, first compound 0.03 µM",97.6%
same,"viability, T/C","second compound 0.00316 µM, first compound 0.0949 µM",84.2%
same,"viability, T/C","second compound 0.00316 µM, first compound 0.3 µM",53.7%
same,"viability, T/C","second compound 0.01 µM, first compound 0.000949 µM",86.4%
same,"viability, T/C","second compound 0.01 µM, first compound 0.003 µM",87.3%
same,"viability, T/C","second compound 0.01 µM, first compound 0.00949 µM",84.2%
same,"viability, T/C","second compound 0.01 µM, first compound 0.03 µM",86.2%
same,"viability, T/C","second compound 0.01 µM, first compound 0.0949 µM",70.6%
same,"viability, T/C","second compound 0.01 µM, first compound 0.3 µM",47.5%
same,"viability, T/C","second compound 0.0316 µM, first compound 0.000949 µM",70.5%
same,"viability, T/C","second compound 0.0316 µM, first compound 0.003 µM",76.3%
same,"viability, T/C","second compound 0.0316 µM, first compound 0.00949 µM",77.3%
same,"viability, T/C","second compound 0.0316 µM, first compound 0.03 µM",76%
same,"viability, T/C","second compound 0.0316 µM, first compound 0.0949 µM",58.5%
same,"viability, T/C","second compound 0.0316 µM, first compound 0.3 µM",41.2%
same,"viability, T/C","second compound 0.1 µM, first compound 0.000949 µM",60.1%
same,"viability, T/C","second compound 0.1 µM, first compound 0.003 µM",54.5%
same,"viability, T/C","second compound 0.1 µM, first compound 0.00949 µM",56.1%
same,"viability, T/C","second compound 0.1 µM, first compound 0.03 µM",59%
same,"viability, T/C","second compound 0.1 µM, first compound 0.0949 µM",46%
same,"viability, T/C","second compound 0.1 µM, first compound 0.3 µM",34.5%
same,"viability, T/C","second compound 0.316 µM, first compound 0.000949 µM",41.1%
same,"viability, T/C","second compound 0.316 µM, first compound 0.003 µM",41.3%
same,"viability, T/C","second compound 0.316 µM, first compound 0.00949 µM",40.6%
same,"viability, T/C","second compound 0.316 µM, first compound 0.03 µM",41.3%
same,"viability, T/C","second compound 0.316 µM, first compound 0.0949 µM",37.8%
same,"viability, T/C","second compound 0.316 µM, first compound 0.3 µM",31%
same,"viability, T/C","second compound 1 µM, first compound 0.000949 µM",35.1%
same,"viability, T/C","second compound 1 µM, first compound 0.003 µM",33.3%
same,"viability, T/C","second compound 1 µM, first compound 0.00949 µM",35.1%
same,"viability, T/C","second compound 1 µM, first compound 0.03 µM",33.8%
same,"viability, T/C","second compound 1 µM, first compound 0.0949 µM",32.9%
same,"viability, T/C","second compound 1 µM, first compound 0.3 µM",32.5%
C=CC(=O)Nc1cc(Nc2nccc(-c3cn(C)c4ccccc34)n2)c(OC)cc1N(C)CCN(C)C + CCn1c(-c2cc(N3CCN(C)CC3)cnc2C(C)OC)c2c3cc(ccc31)-c1csc(n1)CC(NC(=O)C1CC1C)C(=O)N1CCCC(N1)C(=O)OCC(C)(C)C2,IC50,second compound 0.000949 µM,336 nM
same,IC50,second compound 0.003 µM,209 nM
same,IC50,second compound 0.00949 µM,89.7 nM
same,IC50,second compound 0.03 µM,< 3.16 nM
same,IC50,second compound 0.0949 µM,< 3.16 nM
same,IC50,second compound 0.3 µM,< 3.16 nM
same,"viability, T/C",[1],91.9%
same,"viability, T/C",[2],89.4%
same,"viability, T/C",[3],94.1%
same,"viability, T/C",[4],73.6%
same,"viability, T/C",[5],52.8%
same,"viability, T/C",[6],22.7%
same,"viability, T/C",[7],93%
same,"viability, T/C",[8],92%
same,"viability, T/C",[9],72.8%
same,"viability, T/C",[10],66.8%
same,"viability, T/C",[11],41.8%
same,"viability, T/C",[12],13.6%
same,"viability, T/C",[13],74.9%
same,"viability, T/C",[14],65.2%
same,"viability, T/C",[15],65.6%
same,"viability, T/C",[16],49%
same,"viability, T/C",[17],15.2%
same,"viability, T/C",[18],8.83%
same,"viability, T/C",[19],50.5%
same,"viability, T/C",[20],49%
same,"viability, T/C",[21],48.8%
same,"viability, T/C",[22],18.7%
same,"viability, T/C",[23],10.5%
same,"viability, T/C",[24],7.69%
same,"viability, T/C",[25],21%
same,"viability, T/C",[26],18.5%
same,"viability, T/C",[27],14.1%
same,"viability, T/C",[28],10.6%
same,"viability, T/C",[29],8.27%
same,"viability, T/C",[30],7.06%
same,"viability, T/C",[31],12.9%
same,"viability, T/C",[32],11.8%
same,"viability, T/C",[33],11.4%
same,"viability, T/C",[34],8.91%
same,"viability, T/C",[35],7.33%
same,"viability, T/C",[36],7.02%
O=C(c1ccc(F)c(F)c1Nc1ccc(I)cc1F)N1CC(O)([C@@H]2CCCCN2)C1 + CCn1c(-c2cc(N3CCN(C)CC3)cnc2C(C)OC)c2c3cc(ccc31)-c1csc(n1)CC(NC(=O)C1CC1C)C(=O)N1CCCC(N1)C(=O)OCC(C)(C)C2,IC50,second compound 0.000949 µM,118 nM
same,IC50,second compound 0.003 µM,64.2 nM
same,IC50,second compound 0.00949 µM,42.2 nM
same,IC50,second compound 0.03 µM,3.23 nM
same,IC50,second compound 0.0949 µM,< 3.16 nM
same,IC50,second compound 0.3 µM,< 3.16 nM
same,"viability, T/C",[1],94.8%
same,"viability, T/C",[2],92%
same,"viability, T/C",[3],87.4%
same,"viability, T/C",[4],57.3%
same,"viability, T/C",[5],10.2%
same,"viability, T/C",[6],2.95%
same,"viability, T/C",[7],95.7%
same,"viability, T/C",[8],87%
same,"viability, T/C",[9],63.2%
same,"viability, T/C",[10],45.8%
same,"viability, T/C",[11],7.54%
same,"viability, T/C",[12],2.62%
same,"viability, T/C",[13],67.8%
same,"viability, T/C",[14],60.7%
same,"viability, T/C",[15],56%
same,"viability, T/C",[16],31.1%
same,"viability, T/C",[17],3.99%
same,"viability, T/C",[18],2.44%
same,"viability, T/C",[19],51.7%
same,"viability, T/C",[20],45%
same,"viability, T/C",[21],31.1%
same,"viability, T/C",[22],6.53%
same,"viability, T/C",[23],2.64%
same,"viability, T/C",[24],2.51%
same,"viability, T/C",[25],14.9%
same,"viability, T/C",[26],10.1%
same,"viability, T/C",[27],7.08%
same,"viability, T/C",[28],2.95%
same,"viability, T/C",[29],2.96%
same,"viability, T/C",[30],2.57%
same,"viability, T/C",[31],8.48%
same,"viability, T/C",[32],8.02%
same,"viability, T/C",[33],4.92%
same,"viability, T/C",[34],2.97%
same,"viability, T/C",[35],3.32%
same,"viability, T/C",[36],2.59%
